According to PubChem BioAssay (NCI):
Several values for one entry are separate records, joined by “and”; a condition that tells them apart may be missing. Equal entries are not always repeated.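 96-well plates; 48 h exposure; 5 concentrations. Endpoints by linear interpolation between flanking doses. Not reached: highest tested concentration assigned. GI50 is the concentration that inhibits growth by half. TGI denotes the concentration required for complete inhibition of growth.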

Tests used:
Test in all cases: NCI anticancer screen, dose series, 48 h
KM12 colon = tested on: KM12 colon
SR leukemia = tested on: SR leukemia
SK-MEL-2 melanoma = tested on: SK-MEL-2 melanoma
DU-145 prostate = tested on: DU-145 prostate
NCI-H23 lung = tested on: NCI-H23 lung
HCC-2998 colon = tested on: HCC-2998 colon
MALME-3M melanoma = tested on: MALME-3M melanoma
SNB-19 CNS = tested on: SNB-19 CNS
MDA-MB-231 breast = tested on: MDA-MB-231 breast
786-0 renal = tested on: 786-0 renal
NCI/ADR-RES ovarian = tested on: NCI/ADR-RES ovarian
MCF7 breast = tested on: MCF7 breast
NCI-H460 lung = tested on: NCI-H460 lung
HCT-116 colon = tested on: HCT-116 colon
T-47D breast = tested on: T-47D breast
SK-OV-3 ovarian = tested on: SK-OV-3 ovarian
ACHN renal = tested on: ACHN renal
OVCAR-5 ovarian = tested on: OVCAR-5 ovarian
UACC-62 melanoma = tested on: UACC-62 melanoma
SN12C renal = tested on: SN12C renal
HOP-62 NSCLC = tested on: HOP-62 NSCLC
NCI-H522 lung = tested on: NCI-H522 lung
HCT-15 colon = tested on: HCT-15 colon
BT-549 breast = tested on: BT-549 breast
MDA-MB-435 = tested on: MDA-MB-435
LOX IMVI melanoma = tested on: LOX IMVI melanoma
EKVX NSCLC = tested on: EKVX NSCLC
CAKI-1 renal = tested on: CAKI-1 renal
OVCAR-8 ovarian = tested on: OVCAR-8 ovarian
HL-60(TB) leukemia = tested on: HL-60(TB) leukemia

## Nc1cc2c(c3ccccc13)C(CCl)CN2C(=O)c1cc2cc(NC(=O)c3cc4ccccc4o3)ccc2[nH]1 (stereo not drawn)
KM12 colon
  GI50: > 0.11 µM
  TGI: 0.0235 µM and < 0.11 µM
SR leukemia
  GI50: > 0.11 µM
  TGI: 200 µM
SK-MEL-2 melanoma
  GI50: > 0.11 µM
  TGI: 0.0109 µM and < 0.11 µM
DU-145 prostate
  TGI: 142 µM
NCI-H23 lung
  TGI: 0.027 µM and 0.125 µM
HCC-2998 colon
  TGI: 0.675 µM
MALME-3M melanoma
  GI50: > 0.11 µM
  TGI: 0.00771 µM and < 0.11 µM
SNB-19 CNS
  TGI: 0.408 µM
MDA-MB-231 breast
  GI50: > 0.11 µM
  TGI: > 1100 µM
786-0 renal
  GI50: > 0.11 µM
  TGI: > 1100 µM
NCI/ADR-RES ovarian
  GI50: > 0.11 µM
  TGI: 0.0078 µM and < 0.11 µM
MCF7 breast
  GI50: > 0.11 µM
  TGI: < 0.11 µM
NCI-H460 lung
  GI50: 0.000351 µM
HCT-116 colon
  GI50: > 0.11 µM
  TGI: > 1100 µM
T-47D breast
  GI50: > 0.11 µM
SK-OV-3 ovarian
  TGI: 5.5 µM
ACHN renal
  GI50: 0.000208 µM
OVCAR-5 ovarian
  GI50: > 0.11 µM
  TGI: 138 µM
UACC-62 melanoma
  TGI: 0.0206 µM
SN12C renal
  GI50: > 0.11 µM
  TGI: 1.67 µM
HOP-62 NSCLC
  TGI: < 0.11 µM
NCI-H522 lung
  GI50: > 0.11 µM
  TGI: 0.00332 µM and < 0.11 µM
HCT-15 colon
  GI50: > 0.11 µM
  TGI: 1.15 µM
BT-549 breast
  TGI: 0.00708 µM
MDA-MB-435
  GI50: > 0.11 µM
  TGI: < 0.11 µM
LOX IMVI melanoma
  GI50: > 0.11 µM
  TGI: 256 µM
EKVX NSCLC
  TGI: 0.43 µM
CAKI-1 renal
  GI50: > 0.11 µM
  TGI: < 0.11 µM
OVCAR-8 ovarian
  GI50: > 0.11 µM
  TGI: 0.00407 µM and < 0.11 µM
HL-60(TB) leukemia
  GI50: > 0.11 µM
  TGI: < 0.11 µM
